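Tested at 5 concentrations; 48 h exposure; 96-well plates; endpoints linearly interpolated, else capped at highest concentration. TGI denotes the concentration required for complete inhibition of growth.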
Experiments:
Test in all cases: inhibition of tumour cell growth, NCI panel, 48 h
786-0 renal = system: 786-0 renal
A498 renal = system: A498 renal
A549 NSCLC = system: A549 NSCLC
ACHN renal = system: ACHN renal
BT-549 breast = system: BT-549 breast
CAKI-1 renal = system: CAKI-1 renal
CCRF-CEM leukemia = system: CCRF-CEM leukemia
COLO 205 colon = system: COLO 205 colon
DU-145 prostate = system: DU-145 prostate
EKVX NSCLC = system: EKVX NSCLC
HCC-2998 colon = system: HCC-2998 colon
HCT-116 colon = system: HCT-116 colon
HCT-15 colon = system: HCT-15 colon
HL-60(TB) leukemia = system: HL-60(TB) leukemia
HOP-62 NSCLC = system: HOP-62 NSCLC
HOP-92 NSCLC = system: HOP-92 NSCLC
HS 578T breast = system: HS 578T breast
HT29 colon = system: HT29 colon
IGROV1 ovarian = system: IGROV1 ovarian
K-562 leukemia = system: K-562 leukemia
KM12 colon = system: KM12 colon
LOX IMVI melanoma = system: LOX IMVI melanoma
M14 melanoma = system: M14 melanoma
MCF7 breast = system: MCF7 breast
MDA-MB-231 breast = system: MDA-MB-231 breast
MDA-MB-435 = system: MDA-MB-435
MDA-N = system: MDA-N
MOLT-4 leukemia = system: MOLT-4 leukemia
NCI-H226 lung = system: NCI-H226 lung
NCI-H23 lung = system: NCI-H23 lung
NCI-H460 lung = system: NCI-H460 lung
NCI-H522 lung = system: NCI-H522 lung
NCI/ADR-RES ovarian = system: NCI/ADR-RES ovarian
OVCAR-3 ovarian = system: OVCAR-3 ovarian
OVCAR-4 ovarian = system: OVCAR-4 ovarian
OVCAR-5 ovarian = system: OVCAR-5 ovarian
OVCAR-8 ovarian = system: OVCAR-8 ovarian
PC-3 prostate = system: PC-3 prostate
RPMI-8226 leukemia = system: RPMI-8226 leukemia
RXF 393 renal = system: RXF 393 renal
SF-268 CNS = system: SF-268 CNS
SF-295 CNS = system: SF-295 CNS
SF-539 CNS = system: SF-539 CNS
SK-MEL-2 melanoma = system: SK-MEL-2 melanoma
SK-MEL-28 melanoma = system: SK-MEL-28 melanoma
SK-MEL-5 melanoma = system: SK-MEL-5 melanoma
SK-OV-3 ovarian = system: SK-OV-3 ovarian
SN12C renal = system: SN12C renal
SNB-19 CNS = system: SNB-19 CNS
SNB-75 CNS = system: SNB-75 CNS
SR leukemia = system: SR leukemia
SW-620 colon = system: SW-620 colon
T-47D breast = system: T-47D breast
TK-10 renal = system: TK-10 renal
U251 CNS = system: U251 CNS
UACC-257 melanoma = system: UACC-257 melanoma
UACC-62 melanoma = system: UACC-62 melanoma
UO-31 renal = system: UO-31 renal

Measured: TGI

Nc1ccc2c(c1)C(=O)c1ccc(F)cc1-2
> 100 µM: 786-0 renal | A498 renal | A549 NSCLC | ACHN renal | BT-549 breast | CAKI-1 renal | CCRF-CEM leukemia | COLO 205 colon | DU-145 prostate | EKVX NSCLC | HCC-2998 colon | HCT-116 colon | HCT-15 colon | HL-60(TB) leukemia | HOP-62 NSCLC | HOP-92 NSCLC | HS 578T breast | HT29 colon | IGROV1 ovarian | K-562 leukemia | KM12 colon | LOX IMVI melanoma | M14 melanoma | MCF7 breast | MDA-MB-231 breast | MDA-MB-435 | MDA-N | MOLT-4 leukemia | NCI-H226 lung | NCI-H23 lung | NCI-H460 lung | NCI-H522 lung | NCI/ADR-RES ovarian | OVCAR-3 ovarian | OVCAR-4 ovarian | OVCAR-5 ovarian | OVCAR-8 ovarian | PC-3 prostate | RPMI-8226 leukemia | RXF 393 renal | SF-268 CNS | SF-295 CNS | SF-539 CNS | SK-MEL-2 melanoma | SK-MEL-28 melanoma | SK-MEL-5 melanoma | SK-OV-3 ovarian | SN12C renal | SNB-19 CNS | SNB-75 CNS | SR leukemia | SW-620 colon | T-47D breast | TK-10 renal | U251 CNS | UACC-257 melanoma | UACC-62 melanoma | UO-31 renal

From PubChem BioAssay (NCI)
